Target: T1, CPS1 (Homo sapiens, UniProt P31327)
T1 construct: The full length, human CPS1 gene was cloned into pFastBac HTA; His6 (from the pFastBac HTA vector); made in house; host or cells: SF21 insect cells (baculovirus, Bac-to-bac)
T1 sequence (P31327 39-1500): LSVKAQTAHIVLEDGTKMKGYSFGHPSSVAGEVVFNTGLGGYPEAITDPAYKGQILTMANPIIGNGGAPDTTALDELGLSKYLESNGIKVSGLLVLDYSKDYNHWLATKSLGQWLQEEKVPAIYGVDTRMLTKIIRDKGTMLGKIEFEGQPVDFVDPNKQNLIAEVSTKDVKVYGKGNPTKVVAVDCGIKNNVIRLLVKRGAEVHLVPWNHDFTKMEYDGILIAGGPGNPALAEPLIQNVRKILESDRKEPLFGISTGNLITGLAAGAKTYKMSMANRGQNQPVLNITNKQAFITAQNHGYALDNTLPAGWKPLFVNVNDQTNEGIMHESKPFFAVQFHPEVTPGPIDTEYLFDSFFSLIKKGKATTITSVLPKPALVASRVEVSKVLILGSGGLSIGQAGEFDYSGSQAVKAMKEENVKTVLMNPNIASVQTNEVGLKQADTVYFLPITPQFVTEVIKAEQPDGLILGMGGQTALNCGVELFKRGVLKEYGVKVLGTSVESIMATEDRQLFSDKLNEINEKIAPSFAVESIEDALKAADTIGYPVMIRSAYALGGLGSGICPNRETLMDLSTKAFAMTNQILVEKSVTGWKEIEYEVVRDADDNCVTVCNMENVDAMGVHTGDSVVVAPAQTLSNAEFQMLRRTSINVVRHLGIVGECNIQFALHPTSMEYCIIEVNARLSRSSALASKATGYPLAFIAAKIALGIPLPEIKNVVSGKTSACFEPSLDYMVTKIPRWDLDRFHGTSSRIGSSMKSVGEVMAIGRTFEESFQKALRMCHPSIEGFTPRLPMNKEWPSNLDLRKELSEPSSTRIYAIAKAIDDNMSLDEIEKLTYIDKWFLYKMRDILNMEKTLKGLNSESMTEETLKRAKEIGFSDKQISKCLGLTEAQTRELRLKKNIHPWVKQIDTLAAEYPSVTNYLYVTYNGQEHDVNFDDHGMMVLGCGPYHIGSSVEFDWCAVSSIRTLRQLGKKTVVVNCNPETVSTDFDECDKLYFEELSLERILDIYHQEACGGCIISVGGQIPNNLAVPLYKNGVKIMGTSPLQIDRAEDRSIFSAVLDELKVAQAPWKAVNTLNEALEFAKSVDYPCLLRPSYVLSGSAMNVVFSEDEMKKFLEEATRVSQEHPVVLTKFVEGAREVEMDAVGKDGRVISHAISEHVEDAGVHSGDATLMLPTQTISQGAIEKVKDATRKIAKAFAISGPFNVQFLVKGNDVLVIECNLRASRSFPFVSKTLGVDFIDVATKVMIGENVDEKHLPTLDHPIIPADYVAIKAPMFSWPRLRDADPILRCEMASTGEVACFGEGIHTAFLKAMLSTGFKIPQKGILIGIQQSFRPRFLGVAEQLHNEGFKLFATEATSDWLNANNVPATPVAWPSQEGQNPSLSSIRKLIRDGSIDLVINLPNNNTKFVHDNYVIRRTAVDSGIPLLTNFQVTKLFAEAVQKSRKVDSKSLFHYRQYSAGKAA
Assay: ADP-Glo endpoint assay measuring the ATPase activity of CPS1
Type: biochemical
Details: geometric mean of a minimum of two values; 50 nM CPS1, 10 μM ATP, 0.2 mM NAG, 60 min at room temperature; read-out: ADPGlo IC50
Experimental: CPS1 was expressed and purified from SF21 insect cells. The full length, human CPS1 gene was cloned into pFastBac HTA and baculovirus was generated using the Bac-to-bac expression system from Invitrogen. P3 virus was used to infect SF21 insect cells at a density of 1.5E6 cells/mL at an MOI of 2. Cells were harvested by centrifugation after 60 hrs and the cell pellet resuspended in lysis buffer (50 mM glycyl glycine pH 7.4, 20 mM KCl, 1 mM TCEP, 10% glycerol and 20 mM imidazole with Roche protease inhibitor tablet) before being lysed with 40 strokes of a Dounce homogenizer on ice. The insoluble fraction of the lysate was then cleared by centrifugation at 30,000 rpm for 30 min. 40 mL of supernatant was mixed with 2 mL of Ni NTA beads for 45 min at 4° C. in a 50 mL conical tube.
The beads were washed with 40 mL of wash buffer (50 mM glycyl glycine pH 7.4, 500 mM NaCl, 1 mM TCEP, 10% glycerol and 50 mM imidazole) by centrifugation and resuspension of the beads three times. Bound CPS1 protein was eluted in 6 mL of elution buffer (50 mM glycyl glycine pH 7.4, 500 mM NaCl, 1 mM TCEP, 10% glycerol and 250 mM imidazole) three times. Elution fractions were combined and concentrated using an Amicon Ultra centrifugation filter with a 10,000 molecular weight cut off. Imidazole was removed by repeated concentration and resuspension in storage buffer in the filter device (50 mM glycyl glycine pH 7.4, 500 mM NaCl, 1 mM TCEP and 20% glycerol). CPS1 was concentrated to a final concentration of ˜3 mg/mL before being aliquoted, flash frozen in liquid nitrogen and stored at −80° C.
CPS1 activity was measured and compounds profiled in an endpoint assay measuring the ATPase activity of CPS1 using the ADP-Glo kit from Promega. 50 nM CPS1 was incubated alone or with varying amounts of tested compound from DMSO stocks in assay buffer (50 mM HEPES pH 7.0, 12.5 mM KHCO3, 1.5 mM (NH4)2SO3, 5 mM MgCl2, 50 mM KCl, 1 mM TCEP, 0.01% TritonX 100, 0.0025% BSA and 0.2 mM NAG) for 20 min in a 3 μL volume in a 384-well plate (Corning Cat#3820). The final concentration of DMSO was 0.04%. The reaction was initiated by the addition of 10 μM ATP, bringing the final volume to 6 μL. After 60 min at room temperature, the reaction was terminated with 3 μL ADP-Glo reagent and incubated at room temperature for 30 min. 3 μL of kinase detection reagent was then added and luminescent signal measured on an Envision plate reader after 30 min.

| SMILES | IC50 [µM] |
| --- | --- |
| COc1ccc(C(=O)N2C[C@@H](C)N(C(=O)c3ccc(-n4cnnn4)cc3)[C@H](C)C2)c(F)c1 [Compound 41, ((3R,5R)-4-(4-(1H-Tetrazol-1-yl)benzoyl)-3,5-dimethylpiperazin-1-yl)(2-fluoro-4-methoxyphenyl)methanone] | 10.4 |
| COc1ccc(C(=O)N2C[C@@H](C)N(C(=O)c3ccc(CCO)cc3)[C@H](C)C2)c(F)c1 [Compound 42, ((2R,6R)-4-(2-Fluoro-4-methoxybenzoyl)-2,6-dimethylpiperazin-1-yl)(4-(2-hydroxyethyl)phenyl)methanone] | 10.7 |
| COc1ccc(C(=O)N2C[C@@H](C)N(C(=O)c3ccc4cc(C)[nH]c4c3)[C@H](C)C2)c(F)c1 [Compound 43, ((3R,5R)-3,5-Dimethyl-4-(2-methyl-1H-indole-6-carbonyl)piperazin-1-yl)(2-fluoro-4-methoxyphenyl)methanone] | 11.4 |
| COc1ccc(C(=O)N2CCN(C(=O)c3ccc(OC)cc3F)CC2)c(F)c1 [Compound 44, Piperazine-1,4-diylbis((2-fluoro-4-methoxyphenyl)methanone)] | 7.78 |
| COc1ccc(C(=O)N2CCN(C(=O)c3ccc(OC)cc3F)C(C)C2)c(F)c1 (stereo not shown) [Compound 45, (2-Methylpiperazine-1,4-diyl)bis((2-fluoro-4-methoxyphenyl)methanone)] | 5.21 |
| COc1ccc(C(=O)N2CCN(C(=O)c3ccc(OC)cc3F)[C@H](C)C2)c(F)c1 [Compound 46, (R)-(2-methylpiperazine-1,4-diyl)bis((2-fluoro-4-methoxyphenyl)methanone)] | 6.04 |
| COc1ccc(C(=O)N2C[C@H](C)N(C(=O)c3ccc(OC)cc3F)C[C@H]2C)c(F)c1 [Compound 47, ((2S,5R)-2,5-dimethylpiperazine-1,4-diyl)bis((2-fluoro-4-methoxyphenyl)methanone)] | 0.714 |
| COc1ccc(C(=O)N2CCN(C(=O)c3ccc(OC)cc3F)C(C)(C)C2)c(F)c1 [Compound 48, (2,2-Dimethylpiperazine-1,4-diyl)bis((2-fluoro-4-methoxyphenyl)methanone)] | 4.68 |
| COc1ccc(C(=O)N2C[C@H](C)N(C(=O)c3ccc(OC)cc3F)[C@@H](C)C2)c(F)c1 [Compound 49, ((2S,6S)-2,6-Dimethylpiperazine-1,4-diyl)bis((2-fluoro-4-methoxyphenyl)methanone)] | 6.56 |
| COc1ccc(C(=O)N2C[C@@H](C)N(C(=O)c3ccc(OC)cc3F)[C@@H](C)C2)c(F)c1 [Compound 50, ((2R,6S)-2,6-Dimethylpiperazine-1,4-diyl)bis((2-fluoro-4-methoxyphenyl)methanone)] | 6.98 |
| COc1ccc(C(=O)N2CCN(C(=O)c3ccc(OC)cc3F)[C@@H](C)C2)c(F)c1 [Compound 51, (S)-(2-Methylpiperazine-1,4-diyl)bis((2-fluoro-4-methoxyphenyl)methanone)] | 2.78 |
| COc1ccc(OC)c2[nH]c(C(=O)N3[C@H](C)CN(C(=O)c4ccc5cc[nH]c5c4)C[C@H]3C)cc12 [Compound 52, ((2R,6R)-4-(1H-indole-6-carbonyl)-2,6-dimethylpiperazin-1-yl)(4,7-dimethoxy-1H-indol-2-yl)methanone] | 0.193 |
| COc1ccc(OC)c2[nH]c(C(=O)N3C[C@@H](C)N(C(=O)c4ccc5cc[nH]c5c4)[C@H](C)C3)cc12 [Compound 53, ((3R,5R)-4-(1H-indole-6-carbonyl)-3,5-dimethylpiperazin-1-yl)(4,7-dimethoxy-1H-indol-2-yl)methanone] | 1.59 |
| COc1ccc(OC)c2[nH]c(C(=O)N3CCN(C(=O)c4ccc5cc[nH]c5c4)CC3)cc12 [Compound 54, (4-(1H-indole-6-carbonyl)piperazin-1-yl)(4,7-dimethoxy-1H-indol-2-yl)methanone] | 2.12 |
| COc1ccc(C(=O)N2C[C@@H](C)N(C(=O)c3cc4cc(O)ccc4[nH]3)[C@H](C)C2)c(F)c1 [Compound 55, ((2R,6R)-4-(2-fluoro-4-methoxybenzoyl)-2,6-dimethylpiperazin-1-yl)(5-hydroxy-1H-indol-2-yl)methanone] | 2.13 |
| COc1ccc(C(=O)N2[C@H](C)CN(C(=O)c3c[nH]c4c(C)cccc34)C[C@H]2C)c(F)c1 [Compound 56, ((2R,6R)-2,6-dimethyl-4-(7-methyl-1H-indole-3-carbonyl)piperazin-1-yl)(2-fluoro-4-methoxyphenyl)methanone] | 3.28 |
| COc1ccc(C(=O)N2C[C@@H](C)N(C(=O)c3cc4ccccc4[nH]3)[C@H](C)C2)c(F)c1 [Compound 57, ((3R,5R)-4-(1H-indole-2-carbonyl)-3,5-dimethylpiperazin-1-yl)(2-fluoro-4-methoxyphenyl)methanone] | 3.3 |
| COc1ccc(C(=O)N2[C@H](C)CN(C(=O)c3c[nH]c4c(F)cccc34)C[C@H]2C)c(F)c1 [Compound 58, (7-fluoro-1H-indol-3-yl)((3R,5R)-4-(2-fluoro-4-methoxybenzoyl)-3,5-dimethylpiperazin-1-yl)methanone] | 4.05 |
| COc1ccc(C(=O)N2[C@H](C)CN(C(=O)c3cc4ccccc4[nH]3)C[C@H]2C)c(F)c1 [Compound 59, ((2R,6R)-4-(1H-indole-2-carbonyl)-2,6-dimethylpiperazin-1-yl)(2-fluoro-4-methoxyphenyl)methanone] | 5.58 |
| COc1ccc(C(=O)N2[C@H](C)CN(C(=O)c3c[nH]c4ccc(Cl)cc34)C[C@H]2C)c(F)c1 [Compound 61, (5-chloro-1H-indol-3-yl)((3R,5R)-4-(2-fluoro-4-methoxybenzoyl)-3,5-dimethylpiperazin-1-yl)methanone] | 7.39 |
| COc1ccc(C(=O)N2[C@H](C)CN(c3ncnc4cc(OC)ccc34)C[C@H]2C)c(F)c1 [Compound 62, (2-fluoro-4-methoxyphenyl)((2R,6R)-4-(7-methoxyquinazolin-4-yl)-2,6-dimethylpiperazin-1-yl)methanone] | 10.5 |
| COc1ccc(C(=O)N2C[C@@H](C)N(C(=O)c3ccc(OC)cc3)[C@H](C)C2)cc1 [Compound 63, ((2R,6R)-2,6-dimethylpiperazine-1,4-diyl)bis((4-methoxyphenyl)methanone)] | 4.74 |
